Laboratory results as given in patent US20080009025A1, “PROTEIN KINASE REGULATION” (priority 1999, published 2008).
Where a SMILES comes first, the peptide text is derived from it.

Assays:
[1] = target: T1, PDK1 (Homo sapiens, UniProt O15530); test: Surface plasmon resonance binding of His-PDK1 to immobilised p70 S6K; details: 10 μM peptide
T1 construct: Full length PDK1 (residues 1-556); made in house; host or cells: 293 cells
T1 sequence (O15530 52-556): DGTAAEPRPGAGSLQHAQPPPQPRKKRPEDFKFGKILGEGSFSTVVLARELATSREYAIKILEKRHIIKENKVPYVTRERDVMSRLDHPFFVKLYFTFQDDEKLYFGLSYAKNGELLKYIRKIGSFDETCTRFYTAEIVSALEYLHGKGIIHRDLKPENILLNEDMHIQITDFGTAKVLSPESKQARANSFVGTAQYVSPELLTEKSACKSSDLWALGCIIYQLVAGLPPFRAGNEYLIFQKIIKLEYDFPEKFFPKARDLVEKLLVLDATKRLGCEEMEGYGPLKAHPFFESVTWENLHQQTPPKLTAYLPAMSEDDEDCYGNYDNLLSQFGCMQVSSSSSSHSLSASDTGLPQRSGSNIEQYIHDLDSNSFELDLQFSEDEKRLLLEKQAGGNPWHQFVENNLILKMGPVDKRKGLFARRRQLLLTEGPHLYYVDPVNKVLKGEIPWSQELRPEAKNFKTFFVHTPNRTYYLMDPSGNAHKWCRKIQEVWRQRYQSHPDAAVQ
Experimental: FIG. 6. Quantitative analysis of the binding of PDK1 to p70 S6K. Surface Plasmon Resonance measurements were carried out on a BiaCore instrument as described in the Methods. His-PDK1 was injected at the indicated concentrations over (A) 2000 RUs of p70 S6K-T2 (closed squares), or 412Ep70 S6K-T2 (closed circles) which was immobolised by amine coupling to a CM5 Sensorchip. Experiments carried out in the presence of either 10 μM wild type PIF peptide (hexagons) or 10 μM D978A mutant PIF peptide (triangles) are indicated. The responses at steady state binding were recorded. All data are single determinations from a representative experiment that was repeated at least 3 times with similar results.
Surface plasmon resonance measurements of PDK1 binding to p70 S6 kinase. p70 S6K-T2 and T412Ep70S6K-T2 mutant were amine coupled to a CM5 sensor chip (BIAcore AB) according to the manufacturer's instructions. The indicated concentrations of His-PDK1 was injected over the chip at a flow rate of 30 μl/min and the steady-state binding determined, in the presence or absence of PIF peptide. The apparent equilibrium dissociation constant (Kd) for the binding of His-PDK1 to p70 S6 kinase was determined by fitting the increase in steady-state binding upon increased PDK1 concentration to a rectangular hyperbola using SigmaPlot 4 (SPSS Inc). […]

[2] = target: T2, PDK1-wt (Homo sapiens, UniProt O15530); test: Phosphorylation of AGC kinase substrates by PDK1 (32P, PhosphoImager); format: biochemical; details: hydrophobic motif Phe to Ala mutants
T2 construct: made in house; host or cells: human embryonic kidney 293 cells
T2 sequence (O15530 1-556): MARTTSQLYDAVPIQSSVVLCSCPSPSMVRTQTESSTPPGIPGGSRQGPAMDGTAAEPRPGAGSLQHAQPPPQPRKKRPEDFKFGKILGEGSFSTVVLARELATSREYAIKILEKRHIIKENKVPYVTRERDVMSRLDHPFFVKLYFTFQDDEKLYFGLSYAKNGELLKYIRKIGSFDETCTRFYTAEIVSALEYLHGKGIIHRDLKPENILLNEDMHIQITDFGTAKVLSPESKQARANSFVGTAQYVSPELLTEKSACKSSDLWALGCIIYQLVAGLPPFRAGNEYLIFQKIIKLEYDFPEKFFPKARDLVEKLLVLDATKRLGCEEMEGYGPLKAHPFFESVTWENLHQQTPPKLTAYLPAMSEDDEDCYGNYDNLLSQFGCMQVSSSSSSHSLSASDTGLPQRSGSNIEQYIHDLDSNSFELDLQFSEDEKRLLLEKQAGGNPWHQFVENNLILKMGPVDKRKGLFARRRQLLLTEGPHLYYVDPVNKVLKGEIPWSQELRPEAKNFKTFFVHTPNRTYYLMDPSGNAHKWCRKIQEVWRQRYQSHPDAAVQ
Experimental: Phosphorylation of AGC kinase substrates by PDK1. The phosphorylation of PDK1 substrates was performed in a final volume of 20 μl in a buffer containing 50 mM Tris-HCl pH 7.5, 0.1% (by vol) 2-mercaptoethanol, 10 mM magnesium chloride, 100 μM [γ-^32P]ATP (˜1000 c.p.m./pmol), 0.5 μM microcystin-LR, 0.6 μM AGC kinase substrate and 0.6 to 30 nM wild type PDK1 or the indicated mutant of PDK1.
Relative phosphorylation of PDK1 substrates. PDK1 substrates were phosphorylated in vitro, subjected to SDS-PAGE, and radioactivity associated with the bands measured using a Phospho-Imager and known amounts of ATP as standard. The phosphorylation rate of PKB[S473D] in the presence of PtdIns (3,4,5)P3 was 2.6 mol/mol PDK1/min and was taken as the relative value of 100. Average values from a representative experiment performed in duplicates are shown.

In the case of `CC[C@H](C)[C@H](NC(=O)[C@H](Cc1ccc(O)cc1)NC(=O)[C@H](CC(=O)O)NC(=O)[C@H](Cc1ccccc1)NC(=O)[C@H](CC(=O)O)NC(=O)[C@H](CCCNC(=N)N)NC(=O)[C@H](Cc1ccccc1)NC(=O)[C@H](CCSC)NC(=O)[C@H](CCC(=O)O)NC(=O)[C@H](CCC(N)=O)NC(=O)[C@H](CCC(=O)O)NC(=O)[C@H](CCC(=O)O)NC(=O)[C@H](CCC(=O)O)NC(=O)[C@H](CO)NC(=O)[C@H](CC(C)C)NC(=O)[C@@H](NC(=O)[C@H](CCCNC(=N)N)NC(=O)[C@@H]1CCCN1C(=O)[C@H](CCC(=O)O)NC(=O)[C@@H](N)CCCNC(=N)N)[C@@H](C)CC)C(=O)N[C@@H](C)C(=O)N[C@@H](CC(=O)O)C(=O)N[C@@H](Cc1c[nH]c2ccccc12)C(=O)N[C@@H](CS)C(=O)O` [PIFtide] (H-REPRILSEEEQEMFRDFDYIADWC-OH; N-terminus and C-terminus assumed), the “effect on the interaction between PDK1 and 412E-p70 S6K-T2” value [1] is reported as “abolished” and the “basal rate at which PDK1 phosphorylated S6K1[F411A], SGK1[F421A] and ΔPH-PKBα[F472A]” value [2] is reported as “not inhibited”.
